One block for each molecule: values may come before it. Bridge positions count the residues as written; N and C are the ends. Square brackets hold non-standard residues; d marks the D form. Peptide text beside a SMILES is read from it. * marks the point of attachment. DOTA = O=C(O)CN1CCN(CC(=O)O)CCN(CC(=O)*)CCN(CC(=O)O)CC1; Trp(5-F) = N[C@@H](Cc1c[nH]c2ccc(F)cc12)C(=O)O; Trp(7-aza) = N[C@@H](Cc1c[nH]c2ncccc12)C(=O)O; Pro(trans-4-F) = O=C(O)[C@@H]1C[C@@H](F)CN1; 2Nal = N[C@@H](Cc1ccc2ccccc2c1)C(=O)O; 4Pal = N[C@@H](Cc1ccncc1)C(=O)O; Cha = N[C@@H](CC1CCCCC1)C(=O)O
Columns and labels:
[1] = molecular target: T1, human DLL3 (Homo sapiens, UniProt Q9NYJ7); test: Affinity determination by Surface Plasmon Resonance (SPR); type: binding; details: 25° C., biotinylated human DLL3 immobilized on streptavidin sensor chip, 1:1 binding model; read-out: SPR KD
T1 sequence (Q9NYJ7 27-618): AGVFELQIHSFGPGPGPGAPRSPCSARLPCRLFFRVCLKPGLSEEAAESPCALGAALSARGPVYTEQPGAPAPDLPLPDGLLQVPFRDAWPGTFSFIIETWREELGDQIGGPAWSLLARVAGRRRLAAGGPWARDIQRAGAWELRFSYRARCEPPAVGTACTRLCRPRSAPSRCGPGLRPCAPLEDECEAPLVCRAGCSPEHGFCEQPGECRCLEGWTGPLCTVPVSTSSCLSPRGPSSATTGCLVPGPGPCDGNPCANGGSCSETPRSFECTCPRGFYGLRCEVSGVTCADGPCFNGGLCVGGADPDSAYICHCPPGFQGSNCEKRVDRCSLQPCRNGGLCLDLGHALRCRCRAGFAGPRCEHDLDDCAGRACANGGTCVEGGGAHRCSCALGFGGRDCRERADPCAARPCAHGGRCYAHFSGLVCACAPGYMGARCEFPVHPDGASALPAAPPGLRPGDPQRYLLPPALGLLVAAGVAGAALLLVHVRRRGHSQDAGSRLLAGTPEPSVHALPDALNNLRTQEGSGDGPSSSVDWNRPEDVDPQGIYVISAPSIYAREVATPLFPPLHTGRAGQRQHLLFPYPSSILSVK
Method in brief: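 Biotinylated human DLL3 was captured on a streptavidin chip with a reference surface. Compounds at several concentrations were injected at 100 μL/minute in phosphate buffer (137 mM NaCl, 2.7 mM KCl, 0.05% P20, 2% DMSO). Affinity and kinetics came from 1:1 model fits of the sensorgrams.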

[2] = system: CT26.DLL3 cells; test: Cell binding (total uptake) of [177Lu]Lu-test peptide, CT26.DLL3 cells; type: cell-based; details: 1 hour at 37° C.
Description: (§1) [^177Lu]LuCl3 was received from venders in HCl solution. For every mCi of [^177Lu]LuCl3 added to the reaction vial (1.5 mL Eppendorf vial), ammonium acetate buffer (0.2 M, pH 4.9, 100 μL, containing 1% w/v ascorbic acid and 6% v/v ethanol) and peptide conjugate (1 nmol). A peptide conjugate of the present disclosure is also referred to herein as a “chelator-peptide”. The pH of the solution was determined to be approximately 5 by using pH strips. The reaction vial was incubated at 80° C., 700 RPM for 17-20 minutes. A sample from the reaction was analyzed by RP-HPLC using an Agilent Infinity II 1260 HPLC to determine reaction completion and radiochemical purity of [^177Lu]Lu-chelator-peptide. HPLC conditions: Waters XBridge BEH C18 Column, 130 Å, 3.5 um, 4.6 mm×250 mm; mobile phase: Solvent A=water (with 0.1% formic acid), solvent B=acetonitrile (with 0.1% formic acid). Gradients: 25-45% B in 10 minutes, 45-65% B in 12 minutes, 65-90% in 6 minutes at a flow rate of 0.5 mL/minute. Required amounts of the product was formulated in 1% PBSA for cell studies.
(§2) The study was conducted using SHP-77, CT26.WT, and CT26.DLL3 cells (Table 7) Adherent cell studies: The cells were cultured in appropriate culture media (20 mL) in tissue culture treated T150 flasks at 37° C. and 5% CO2. Adherent cells were detached (60-70% confluent) using 5 mL Versene at 37° C. for 3 minutes. After confirming the viability using countess and count of detached cells using Trypan blue, the cells were centrifuged at 4° C. for 5 minutes (1,000 rpm). The cell pellet obtained was washed once with PBS and resuspended in 1% PBSA to obtain the desired cell concentration (5-25 million cells/mL).
(§3) Cell numbers used for the assay were in the range of 5 million cells/condition −25 million cells/condition.
(§4) Total uptake: Cells were incubated with 300 μL (0.8 μCi) of the incubation buffer (containing radiolabeled peptide [^177Lu] Lu-test peptide) for 1 hour at 37° C. (Table 8). Post incubation, the cells were pelleted and washed 2 times using cold PBS+1% BSA. The supernatant and washes were combined and counted together as “unbound fraction” in a gamma counter. The cells were then resuspended in 300 μL of 1% PBS+1% BSA and counted in the gamma counter as “bound fraction”.
(§5) In these Tables, “A” represents %≤25; “B” represents 25<%≤50; “C” represents %>50.

[3] = system: SHP-77 cells; test: Cell binding (total uptake) of [177Lu]Lu-test peptide, SHP-77 cells; type: cell-based; details: SHP77 cells, 1 hour at 37° C., bound fraction
Description: as §1, §2
Suspension cell studies: The cells were cultured in appropriate culture media (20 mL) in tissue culture treated T150 flasks at 37° C. and 5% CO2. After confirming the viability and count of detached cells using Trypan blue, the cells were centrifuged at 4° C. for 5 minutes (1,000 rpm). The cell pellet obtained was washed once with PBS and resuspended in 1% PBSA to obtain the desired cell concentration (5-25 million cells/mL).
as §3, §4, §5

[4] = system: SHP-77 tumors; test: Ex vivo biodistribution of radiolabeled peptides in nude mice bearing SHP-77 tumors; details: [177Lu]Lu labelling, nude mice bearing SHP-77 tumors (n = 3), 24 hours post-injection
Method in brief: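 Nude mice bearing SHP-77 xenografts (200-400 mm^3) or tumor-naïve mice (5-7 weeks) received an intravenous tail-vein bolus of [^177Lu]Lu-peptide and were euthanized at pre-set time points. Tissues were weighed and gamma-counted, with counts decay-corrected to injection time. Values are % IA/g per tissue from the injected activity of each mouse.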

[5] = system: CT26.DLL3 cells; test: Internalization (out of bound fraction) of [177Lu]Lu-test peptide, CT26.DLL3 cells; type: cell-based; details: 1 hour at 37° C., glycine pH 2.5 wash
Description: as §1, §2, §3, §4
Internalization: The resuspended cells in 300 μl of 1% PBSA and counted in the gamma counter as “bound fraction” were collected in 1.5 mL Eppendorf tube and pelleted. The pelleted cells were incubated with 300 μl of 50 mM Glycine pH=2.5 for 3 minutes and then pelleted discarding the supernatant. This process was repeated one more time. The pelleted cells were washed with 300 μl of cold 1% PBSA and then resuspended in 300 μl 0.3M NaOH. This was counted in the gamma counter as “internalized fraction”.
as §5

[6] = molecular target: DLL3 on CT26.DLL3 cells (Homo sapiens (Human)) (UniProt Q9NYJ7); test: 177Lu-peptide bound to CT26.DLL3 cells, gamma counting; letter grade, key in paragraph 629
[7] = molecular target: T2, Biotinylated human DLL3 (Delta Like Canonical Notch Ligand 3) (human, UniProt Q9NYJ7 27-492, limits assumed, biotinylated (site not stated)); test: SPR; letter grade, key in paragraph 614
T2 construct: also called Delta-like protein 3; biotinylated target ligand human DLL3
T2 sequence: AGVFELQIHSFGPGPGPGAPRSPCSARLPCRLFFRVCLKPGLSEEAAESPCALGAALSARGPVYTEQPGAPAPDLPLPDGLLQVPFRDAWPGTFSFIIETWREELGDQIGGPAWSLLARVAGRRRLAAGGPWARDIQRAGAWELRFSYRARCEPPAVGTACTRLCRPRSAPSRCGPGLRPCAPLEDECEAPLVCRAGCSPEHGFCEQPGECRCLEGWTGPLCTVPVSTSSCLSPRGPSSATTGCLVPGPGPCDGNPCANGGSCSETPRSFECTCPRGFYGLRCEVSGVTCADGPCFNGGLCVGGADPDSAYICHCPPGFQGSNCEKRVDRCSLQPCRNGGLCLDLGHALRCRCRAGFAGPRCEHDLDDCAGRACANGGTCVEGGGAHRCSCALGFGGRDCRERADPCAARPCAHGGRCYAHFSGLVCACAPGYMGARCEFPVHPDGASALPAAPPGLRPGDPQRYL
Description: Biotinylated target ligand human DLL3 was immobilized on a streptavidin sensor chip. A reference surface was set up for nonspecific binding and refractive index changes. For analysis of the kinetics of interactions, varying concentrations of samples were injected at a flow rate of 100 μL/minute using running buffer containing 20 mM phosphate buffer with 2.7 mM KCl, 137 mM NaCl, 0.05% Surfactant P20 and 2% DMSO. Sensorgram curves were fitted with 1:1 binding model, and affinity and kinetic parameters were obtained using Biacore Insight evaluation 4.0. software.

Molecule: Ac-[Trp(5-F)]T[Cha]CNN[2Nal]HDC[Trp(7-aza)][Pro(trans-4-F)][dK](DOTA)-NH2 (disulfide 4-10; also: 177Lu complexed in the DOTA chelator) [[177Lu]Lu-labelled Cpd No. 245]
% Binding [6]: < 25%

B1: Cpd No. 367 (peptide)
peptide: Ac-WTICNN[2Nal][4Pal]DCWP[dK](DOTA)-NH2
modifications: disulfide 4-10
SMILES: CC[C@H](C)[C@H](NC(=O)[C@@H](NC(=O)[C@H](Cc1c[nH]c2ccccc12)NC(C)=O)[C@@H](C)O)C(=O)N[C@H]1CSSC[C@@H](C(=O)N[C@@H](Cc2c[nH]c3ccccc23)C(=O)N2CCC[C@H]2C(=O)N[C@H](CCCCNC(=O)CN2CCN(CC(=O)O)CCN(CC(=O)O)CCN(CC(=O)O)CC2)C(N)=O)NC(=O)[C@H](CC(=O)O)NC(=O)[C@H](Cc2ccncc2)NC(=O)[C@H](Cc2ccc3ccccc3c2)NC(=O)[C@H](CC(N)=O)NC(=O)[C@H](CC(N)=O)NC1=O
Kd [7]: ≤ 1 nM

B2: Cpd No. 451 (peptide)
peptide: Ac-WTICKN[2Nal]HDCWP[dK](DOTA)-NH2
modifications: disulfide 4-10
SMILES: CC[C@H](C)[C@H](NC(=O)[C@@H](NC(=O)[C@H](Cc1c[nH]c2ccccc12)NC(C)=O)[C@@H](C)O)C(=O)N[C@H]1CSSC[C@@H](C(=O)N[C@@H](Cc2c[nH]c3ccccc23)C(=O)N2CCC[C@H]2C(=O)N[C@H](CCCCNC(=O)CN2CCN(CC(=O)O)CCN(CC(=O)O)CCN(CC(=O)O)CC2)C(N)=O)NC(=O)[C@H](CC(=O)O)NC(=O)[C@H](Cc2c[nH]cn2)NC(=O)[C@H](Cc2ccc3ccccc3c2)NC(=O)[C@H](CC(N)=O)NC(=O)[C@H](CCCCN)NC1=O
Kd [7]: ≤ 1 nM

B3: Cpd No. 252 (peptide)
peptide: Ac-WTICNN[2Nal]HDCWP[dK]-NH2
modifications: disulfide 4-10; not fully specified (residue 13); printed as Ac-W-T-I-C(3)-N-N-(2Nal)-H-D-C(3)-W-P-{D-Lys[PEG8-D-Lys(DOTA)-PEG12-COCH2Ph-4Br]}-NH2, disulfide C(3)-C(3)
Kd [7]: ≤ 1 nM

More lines, main results first:

Kd [1]: 1 to 10 nM
kidney uptake (% IA/g) [4]: D (% IA/g > 10 in kidney)
tumor uptake (% IA/g) [4]: A (0 < % IA/g ≤ 5 in tumor)
Molecule: CC[C@H](C)[C@H](NC(=O)[C@@H](NC(=O)[C@H](Cc1c[nH]c2ccccc12)NC(C)=O)[C@@H](C)O)C(=O)N[C@H]1CSSC[C@@H](C(=O)N[C@@H](Cc2c[nH]c3ccccc23)C(=O)N2CCC[C@H]2C(=O)N[C@H](CCCCNC(=O)CN2CCN(CC(=O)O)CCN(CC(=O)O)CCN(CC(=O)O)CC2)C(N)=O)NC(=O)[C@H](CC(=O)O)NC(=O)[C@H](Cc2cnc[nH]2)NC(=O)[C@H](Cc2c[nH]c3ccccc23)NC(=O)[C@H](CC(N)=O)NC(=O)[C@H](CC(N)=O)NC1=O [compound 23, Ac-W-T-I-C(3)-N-N-W-H-D-C(3)-W-P-[D-Lys(DOTA)]-NH2] (Ac-WTICNNWHDCWP[dK](DOTA)-NH2; disulfide 4-10)
% Binding [2]: A (%≤25)
% Binding [3]: A (%≤25)

Kd [1]: 1 to 10 nM
kidney uptake (% IA/g) [4]: D (% IA/g > 10 in kidney)
tumor uptake (% IA/g) [4]: A (0 < % IA/g ≤ 5 in tumor)
Molecule: CC[C@H](C)[C@H](NC(=O)[C@@H](NC(=O)[C@H](Cc1c[nH]c2ccccc12)NC(C)=O)[C@@H](C)O)C(=O)N[C@H]1CSSC[C@@H](C(=O)N[C@@H](Cc2c[nH]c3ccccc23)C(=O)N2CCC[C@H]2C(=O)N[C@H](CCCCNC(=O)CN2CCN(CC(=O)O)CCN(CC(=O)O)CCN(CC(=O)O)CC2)C(N)=O)NC(=O)[C@H](CC(=O)O)NC(=O)[C@H](Cc2cnc[nH]2)NC(=O)[C@H](Cc2ccc3ccccc3c2)NC(=O)[C@H](CC(N)=O)NC(=O)[C@H](CC(N)=O)NC1=O [compound 75, Ac-W-T-I-C(3)-N-N-(2Nal)-H-D-C(3)-W-P-[D-Lys(DOTA)]-NH2] (Ac-WTICNN[2Nal]HDCWP[dK](DOTA)-NH2; disulfide 4-10)
% Binding [2]: B (25<%≤50)
% Internalization (out of bound fraction) [5]: B (25<%≤50)
% Binding [3]: A (%≤25)

Kd [7]: ≤ 1 nM
Molecule: Ac-WTICNN[2Nal][4Pal]DCWP[dK](DOTA)-NH2 (disulfide 4-10; also: natLu in the DOTA chelator, * = [natLu]Lu-labelled peptide) [[natLu]Lu-labelled Cpd No. 367]

From patent publication US20250011368A1, “DLL3 TARGETING PEPTIDES AND CONSTRUCTS THEREOF” (MARIANA ONCOLOGY INC., priority 2023, published 2025)
